Like-named read-outs stand apart in the source and are kept apart here.
Legend:
CYP2C8 = conditions: role: substrate; in vitro; cited from earlier work
ROCK1 = conditions: cited from earlier work
OATP1B1 = conditions: role: inhibitor; clinically relevant concentrations, in vitro; cited from earlier work
bacteria = conditions: in vitro; cited from earlier work
[1] = Embryo-fetal developmental study in rabbits; assay type: in vivo; conditions: rabbit
[2] = 275 mg/kg/day oral, cited from earlier work
[3] = tested on: human peripheral blood lymphocytes (HPBL); conditions: in vitro; cited from earlier work
[4] = age 18 to 77 years, weight 38.6 to 143 kg, mild to moderate renal impairment; cited from earlier work
[5] = Changes in belumosudil exposure in subjects with hepatic impairment compared to subjects with normal hepatic function; assay type: in vivo, human; conditions: single 200 mg
pro-fibrotic signaling = conditions: in vitro; cited from earlier work
rat bone marrow = conditions: in vivo; cited from earlier work
BCRP = conditions: role: inhibitor; clinically relevant concentrations, in vitro; cited from earlier work
[6] = 200 and 400 mg; cited from earlier work
UGT1A1 = conditions: role: inhibitor; in vitro; cited from earlier work
[7] = Embryo-fetal development studies in rats; assay type: in vivo; conditions: rat
Protocol: In the pilot study, maternal toxicity and embryo-fetal developmental effects were observed. Maternal toxicity (reduced body weight gain) occurred at 150 and 300 mg/kg/day doses. Increased post-implantation loss occurred at 50 and 300 mg/kg/day.

[8] = single oral dose, radiolabeled, healthy subjects; cited from earlier work
ROCK2 = conditions: cited from earlier work
UGT1A9 = conditions: role: inhibitor; in vitro; cited from earlier work
[9] = pregnant rabbits, cited from earlier work
[10] = cited from earlier work
[11] = moderate (Child-Pugh B) vs normal
[12] = severe (Child-Pugh C) vs normal
[13] = healthy subjects, coadministered omeprazole
[14] = healthy subjects, coadministered rabeprazole
[15] = healthy subjects, coadministered rifampin

SMILES: CC(C)NC(=O)COc1cccc(-c2nc(Nc3ccc4[nH]ncc4c3)c3ccccc3n2)c1 [belumosudil, 2-{3-[4-(1H-indazol-5-ylamino)-2-quinazolinyl]phenoxy}-N-(propan-2-yl) acetamide]
- metabolism by CYP2C8 (CYP2C8): to a lesser extent
- OATP1B1 inhibition (OATP1B1): inhibits
- genotoxicity, bacterial mutagenicity (Ames) (bacteria): not genotoxic
- maternal exposure (AUC) multiple of human exposure with adverse developmental outcomes [1]: ≥ 0.07 times the human exposure
- adverse findings in female rats (pre-/post-implantation loss, viable embryos) [2]: increased pre- or post-implantation loss and decreased number of viable embryos
- fertility of treated males or females [2]: Fertility was reduced in both treated males or females
- sperm findings ([2]; male rats): abnormal sperm findings (reduced motility, reduced count, and increased percentage of abnormal sperm)
- testes/epididymis organ changes ([2]; male rats): reduced weight and degeneration
- differences in belumosudil pharmacokinetics by age, sex, weight, renal impairment [4]: No clinically significant differences
- AUC change, free concentrations: decrease ([5]; mild (Child-Pugh A) vs normal): 19%
- AUC change, total (free + bound): increase ([5]; mild (Child-Pugh A) vs normal): 1.4-fold
- Cmax change, free concentrations: decrease ([5]; mild (Child-Pugh A) vs normal): 14%
- Cmax change, total (free + bound): increase ([5]; mild (Child-Pugh A) vs normal): 1.2-fold
- AUC change, free concentrations: increase [5, 11]: 1.4-fold
- AUC change, total (free + bound): increase [5, 11]: 1.5-fold
- Cmax change, free concentrations: decrease [5, 11]: 12%
- Cmax change, total (free + bound): decrease [5, 11]: 6%
- AUC change, free concentrations: increase [5, 12]: 16-fold
- AUC change, total (free + bound): increase [5, 12]: 4.2-fold
- Cmax change, free concentrations: increase [5, 12]: 5.4-fold
- Cmax change, total (free + bound): increase [5, 12]: 1.3-fold
- aberrant pro-fibrotic signaling (pro-fibrotic signaling): inhibits aberrant pro-fibrotic signaling
- genotoxicity, micronucleus (rat bone marrow): not genotoxic
- BCRP inhibition (BCRP): inhibits
- dose proportionality of Cmax and AUC [6]: increased in an approximately proportional manner
- UGT1A1 inhibition (UGT1A1): inhibitor
- maternal exposure (AUC) multiple of human exposure with adverse developmental outcomes [7]: ≥ 3 times the human exposure
- radioactivity recovered in feces [8]: 85%
- radioactivity recovered in feces as unchanged [8]: 30%
- radioactivity recovered in urine [8]: less than 5%
- UGT1A9 inhibition (UGT1A9): inhibitor
- doses with maternal toxicity (body weight loss and mortality) ([9]; oral): ≥ 125 mg/kg/day
- doses with embryo-fetal effects ([9]; oral, spontaneous abortion, post-implantation loss, malformations, decreased fetal weight): ≥ 50 mg/kg/day
- maternal exposure (AUC) causing embryo-fetal mortality and malformations vs patients ([9]; organogenesis): less than those in patients at the recommended dose
- effect of proton pump inhibitors on belumosudil exposure ([10]; coadministered proton pump inhibitors): decreases belumosudil exposure
- effect of strong CYP3A inducers on belumosudil exposure ([10]; coadministered strong CYP3A inducers): decreases belumosudil exposure
- effect of itraconazole on belumosudil exposure ([10]; healthy subjects, coadministered itraconazole): no clinically meaningful effect on belumosudil exposure
- decrease in belumosudil AUC [10, 13]: 47%
- decrease in belumosudil Cmax [10, 13]: 68%
- decrease in belumosudil AUC [10, 14]: 80%
- decrease in belumosudil Cmax [10, 14]: 87%
- decrease in belumosudil AUC [10, 15]: 72%
- decrease in belumosudil Cmax [10, 15]: 59%
